Reference: US8765730B2 (Hoffmann-La Roche Inc, priority 2010, dated 2014)
pEC50: −log10 of the molar value.

Molecular target: T1, human GPBAR1 receptor (Homo sapiens, UniProt Q8TDU6)
T1 construct: expressed in transfected cells
T1 sequence (Q8TDU6 1-330): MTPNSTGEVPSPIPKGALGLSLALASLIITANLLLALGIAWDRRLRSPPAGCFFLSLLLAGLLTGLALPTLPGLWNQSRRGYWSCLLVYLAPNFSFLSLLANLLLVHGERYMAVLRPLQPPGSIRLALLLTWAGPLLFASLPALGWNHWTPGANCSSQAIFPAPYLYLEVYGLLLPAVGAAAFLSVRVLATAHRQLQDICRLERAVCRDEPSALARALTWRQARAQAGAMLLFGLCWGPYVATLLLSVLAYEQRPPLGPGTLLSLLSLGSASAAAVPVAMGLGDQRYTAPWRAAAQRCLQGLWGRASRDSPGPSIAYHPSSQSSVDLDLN
Experiment: functional cAMP assay in CHO-dhfr(minus) cells expressing human GPBAR1 receptors
Type: cell-based
Details: human EC50, functional cAMP assay, 30 min at 30° C.
Protocol: The final clone was verified by DNA sequence analysis. The plasmid was transfected into CHO cells deficient in dihydrofolate reductase activity (CHO-dhfr−) using Lipofectamine plus (Invitrogen). Clones were isolated in limited dilution conditions and identified by activities in the cAMP assay using lithocholic acid as agonist.
The growth medium was exchanged with Krebs Ringer Bicarbonate buffer with 1 mM IBMX and incubated at 30° C. for 30 min. Compounds were added to a final assay volume of 100 μl and incubated for 30 min at 30° C. […] The time-resolved energy transfer is measured by a TRF reader (Evotec Technologies GmbH, Hamburg Germany), equipped with a ND:YAG laser as excitation source.
EC50 values were determined using Activity Base analysis (ID Business Solution, Limited). […] Specificity for GPBAR1 was tested in non-transfected CHO cells in the same assay as above.

Structure (SMILES)	pEC50
Cn1cc(C(CC(c2ccc(C(=O)NCCO)c(F)c2)c2ccccc2Cl)=NO)ccc1=O (mixture of isomers) [Example 216, (E/Z)-4-(1-(2-Chlorophenyl)-3-(hydroxyimino)-3-(1-methyl-6-oxo-1,6-dihydropyridin-3-yl)propyl)-2-fluoro-N-(2-hydroxyethyl)benzamide]	6.59
Cc1ccccc1C(C/C(=N\O)c1ccc(=O)n(C)c1)c1ccc(C(=O)N[C@@H](C)CO)cc1 (stereo partly drawn) [Example 302, 4-((E)-3-(Hydroxyimino)-3-(1-methyl-6-oxo-1,6-dihydropyridin-3-yl)-1-o-tolylpropyl)-N—((S)-1-hydroxypropan-2-yl)benzamide]	6.49
Cc1ccccc1C(C/C(=N\O)c1ccc(=O)n(C)c1)c1ccc(C(=O)NCCS(C)(=O)=O)cc1 (centres unmarked) [Example 310, (E)-4-(3-(Hydroxyimino)-3-(1-methyl-6-oxo-1,6-dihydropyridin-3-yl)-1-o-tolylpropyl)-N-(2-(methylsulfonyl)ethyl)benzamide]	6.82
Cc1ccccc1C(C/C(=N\O)c1ccc(=O)n(C)c1)c1ccc(C(=O)N(C)CC(=O)O)cc1 (centres unmarked) [Example 211, ({4-[3-[(E)-Hydroxyimino]-3-(1-methyl-6-oxo-1,6-dihydro-pyridin-3-yl)-1-o-tolyl-propyl]-benzoyl}-methyl-amino)-acetic acid]	5.22
Cc1cc(C(=O)O)ccc1-c1ccc(C(C/C(=N\O)c2ccc(=O)n(C)c2)c2ccc(Cl)cc2Cl)cc1 (single isomer, unassigned) [Example 478, 4′-[(+)-1-(2,4-dichloro-phenyl)-3-[(E)-hydroxyimino]-3-(1-methyl-6-oxo-1,6-dihydro-pyridin-3-yl)-propyl]-2-methyl-biphenyl-4-carboxylic acid]	6.43
Cc1cc(Cl)ccc1[C@H](C/C(=N\O)c1ccnc(CO)c1)c1ccc(Br)cc1 [Example 383, (R,E)-3-(4-Bromophenyl)-3-(4-chloro-2-methylphenyl)-1-(2-(hydroxymethyl)pyridin-4-yl)propan-1-one oxime]	6.49
Cc1cc(Cl)ccc1C(C/C(=N\O)c1ccc(=O)n(CCC(=O)O)c1)c1ccc(S(C)(=O)=O)cc1 (centres unmarked) [Example 345, (E)-3-(5-(3-(4-Chloro-2-methylphenyl)-1-(hydroxyimino)-3-(4-(methylsulfonyl)phenyl)-propyl)-2-oxopyridin-1(2H)-yl)propanoic acid]	< 5.00
Cc1ccccc1C(C/C(=N\O)c1cc(F)ccc1F)c1ccc(Br)cc1 (centres unmarked) [Example 52, (E)-3-(4-Bromo-phenyl)-1-(2,5-difluoro-phenyl)-3-o-tolyl-propan-1-one oxime]	6.12
Cn1cc(/C(C[C@H](c2ccc(-c3ccc(C(=O)O)c(F)c3)cc2)c2ccc(Cl)cc2F)=N/O)ccc1=O (single isomer, unassigned) [Example 463, 4′-[(−)-1-(4-Chloro-2-fluoro-phenyl)-3-[(E)-hydroxyimino]-3-(1-methyl-6-oxo-1,6-dihydro-pyridin-3-yl)-propyl]-3-fluoro-biphenyl-4-carboxylic acid]	6.81
Cc1ccccc1[C@H](C/C(Cc1ccncc1)=N/O)c1ccc(Br)cc1 [Example 262, (Z,R)-4-(4-bromophenyl)-1-(pyridin-4-yl)-4-o-tolylbutan-2-one oxime]	6.56

Stronger by pEC50, values ahead:

pEC50	Structure (SMILES)
7.85	Cc1cc(/C(C[C@H](c2ccc(C3=CCN(S(C)(=O)=O)CC3)cc2)c2ccccc2C)=N/O)ccn1 [Example 376, (R,E)-1-(2-Methylpyridin-4-yl)-3-(4-(1-(methylsulfonyl)-1,2,3,6-tetrahydropyridin-4-yl)phenyl)-3-o-tolylpropan-1-one oxime]
6.89	Cn1cc(/C(CC(c2ccc(S(C)(=O)=O)cc2)c2cc(Cl)ccc2Cl)=N/O)ccc1=O (centres unmarked) [Example 350, (E)-5-(3-(2,5-Dichlorophenyl)-1-(hydroxyimino)-3-(4-(methylsulfonyl)phenyl)propyl)-1-methylpyridin-2(1H)-one]
9.00	Cc1cc(/C(C[C@H](c2ccc(-c3cn(C)nn3)cc2)c2ccccc2C)=N/O)ccn1 [Example 424, (−)-1-(2-Methyl-pyridin-4-yl)-3-[4-(1-methyl-1H-[1,2,3]triazol-4-yl)-phenyl]-3-o-tolyl-propan-1-one oxime]
7.23	Cc1cc(/C(C[C@H](c2ccc(C(=O)N[C@H]3CC[C@H](C(=O)O)CC3)cc2)c2ccccc2C)=N/O)ccn1 [Example 276, Trans-4-{4-[(R)-3-[(E)-Hydroxyimino]-3-(2-methyl-pyridin-4-yl)-1-o-tolyl-propyl]-benzoylamino}-cyclohexanecarboxylic acid]
7.21	Cn1cc(/C(C[C@@H](c2ccc(-c3ccc(C(=O)O)s3)cc2)c2ccc(Cl)cc2F)=N/O)ccc1=O [Example 470, 5-{4-[(+)-1-(4-Chloro-2-fluoro-phenyl)-3-[(E)-hydroxyimino]-3-(1-methyl-6-oxo-1,6-dihydro-pyridin-3-yl)-propyl]-phenyl}-thiophene-2-carboxylic acid]
6.94	Cc1cc(/C(CC(c2ccc(-c3ccc(S(C)(=O)=O)cc3)cc2)c2ccccc2C(F)(F)F)=N/O)ccn1 (centres unmarked) [Example 133, (E)-3-(4′-Methanesulfonyl-biphenyl-4-yl)-1-(2-methyl-pyridin-4-yl)-3-(2-trifluoromethyl-phenyl)-propan-1-one oxime]
7.25	Cn1cc(/C(CC(c2ccc(Br)cc2)C2CCCC2)=N/O)ccc1=O (centres unmarked) [Example 172, 5-{3-(4-Bromo-phenyl)-3-cyclopentyl-1-[(E)-hydroxyimino]-propyl}-1-methyl-1H-pyridin-2-one]
6.89	Cc1cc(Cl)ccc1C(C/C(=N\O)c1ccc(=O)n(C)c1)c1ccc(C(=O)NCCO)cc1 (centres unmarked) [Example 332, (E)-4-(1-(4-Chloro-2-methylphenyl)-3-(hydroxyimino)-3-(1-methyl-6-oxo-1,6-dihydropyridin-3-yl)propyl)-N-(2-hydroxyethyl)benzamide]
6.92	Cn1cc(/C(CC(c2ccccc2)c2ccccc2)=N/O)ccc1=O [Example 161, 5-{1-[(E)-Hydroxyimino]-3,3-diphenyl-propyl}-1-methyl-1H-pyridin-2-one]
8.10	COCc1nnc(-c2ccc([C@@H](C/C(=N\O)c3ccnc(C)c3)c3ccccc3C)cc2)o1 [Example 419, ((−), E)-3-[4-(5-Methoxymethyl-[1,3,4]oxadiazol-2-yl)-phenyl]-1-(2-methyl-pyridin-4-yl)-3-o-tolyl-propan-1-one oxime]
7.68	Cc1cc(/C(C[C@H](c2ccc(-c3ccc(C(=O)O)cc3)cc2)c2ccccc2C)=N/O)cc(C)n1 [Example 294, 4′-{(R)-3-(2,6-Dimethyl-pyridin-4-yl)-3-[(E)-hydroxyimino]-1-o-tolyl-propyl}-biphenyl-4-carboxylic acid]
7.85	Cc1cc(/C(CC(c2ccc(-c3ccc(C(=O)O)c(F)c3)cc2)c2ccccc2C)=N/O)ccn1 (centres unmarked) [Example 131, 3-Fluoro-4′-[3-[(E)-hydroxyimino]-3-(2-methyl-pyridin-4-yl)-1-o-tolyl-propyl]-biphenyl-4-carboxylic acid]
7.89	Cc1cc(/C(C[C@H](c2ccc(N(C)CCO)cc2)c2ccccc2C)=N/O)ccn1 [Example 268, (E,R)-3-{4-[(2-Hydroxy-ethyl)-methyl-amino]-phenyl}-1-(2-methyl-pyridin-4-yl)-3-o-tolyl-propan-1-one oxime]
